Results: patent US20040267001A1, “Genes encoding baeyer-villiger monooxygenases” (priority 2001, published 2004)

Legend:
[1] = tested on: Acidovorax sp. CHX chnB monooxygenase; test: chnB monooxygenase activity assay, NADPH oxidation at 340 nm, purified over-expressed enzyme; assay type: biochemical; details: 1.25 mM substrate, pH 7.5; ND = No Activity Detected
Excerpt: (§1) Following amplification, the chnB gene fragments were cloned into pTrcHis-TOPO TA vectors with either an N-terminal tail or C-terminal tail, as provided by the vector sequence (N-terminal tail for Brevibacterium sp. HCU, Rhodococcus sp. phi1, Rhodococcus sp. phi2, and Arthrobacter sp. BP2 monooxygenases; C-terminal tail for Acinetobacter sp. SE19 and Acidovorax sp. CHX monooxygenases). These vectors were transformed into E. coli, with transformants grown in Luria-Bertani broth supplemented with ampicillin (100 ug/ml) and riboflavin (0.1 ug/ml) at 30° C. until the absorbance at 600 nm (A600) reached 0.5. When the A600 was reached, the temperature was shifted to 16° C.
(§2) The encoded monooxygenase sequences were expressed upon addition of IPTG to the culture media, 30 min after the temperature shift to 16° C. The cultures were grown further ovemight (14 hrs) and harvested by centrifugation in a cold centrifuge. The cells were treated with lysozyme (100 mg/ml) for 30 min on ice and sonicated. Following sonication, cell extracts were centrifuged and the supernatant was equilibrated with Ni-NTA resin (Qiagen, Valencia, Calif.) for 1 hr at 4° C. Protein bound resin was washed successively with increasing concentrations of imidazole buffer until the protein of interest was released from the resin. The purified protein was concentrated and the buffer exchanged to remove the imidazole. The protein concentration was adjusted to 1 ug/ml.
(§3) Compounds were selected on the basis of previous observations by van der Werf (J. Biochem. 347:693-701 (2000)) and Miyamoto et al. (Biochimica et Biophysica Acta 1251: 115-124 (1995)) and by searches for the ketone substructure.
(§4) All compounds were obtained from Sigma-Aldrich with only two exceptions. Levoglucosenone was obtained from Toronto Research Chemicals, Inc. and dimethyl-2-piperidone was prepared according to U.S. Pat. No. 6,077,955. For enzyme assays all compounds were dissolved to a concentration of 0.1 M in methanol, with the exceptions of norcamphor (dissolved in ethyl acetate), cyclododecanone, cycltridecanone and cyclopentadecanone (dissolved in propanol), and levoglucosenone (dissolved with acetone).
(§5) The monooxygenase activity of each over-expressed enzyme was assayed spectrophotometrically at 340 nm by monitoring the oxidation of NADPH. Assays were performed in individual quartz cuvettes, with a pathlength of 1 cm. […] An Ultrospec 4000 (Pharmacia Biotech, Cambridge, England) was used to read the absorbance of the samples over a two to ten minute time period and the SWIFT (Pharmacia Biotech) program was used to calculate the slope of the reduction in absorbance over time. For the Brevibactedum sp. […] Monooxygenase activity of each over-expressed enzyme is shown in Table 5, with respect to each ketone substrate. The specific activity values listed are given in umol/min/mg. The notation “ND” refers to “No Activity Detected”.

[2] = target: T1, Acinetobacter sp. SE19 chnB monooxygenase (Acinetobacter sp., UniProt Q9F7E4); test: as above; assay type: biochemical; details: 1.25 mM substrate, pH 7.5; ND = No Activity Detected
T1 construct: isolated full length BVMO genes from Brevibacterium sp; HCU, Acinetobacter SE19; C-terminal tail provided by the pTrcHis-TOPO vector (C); made in house; host or cells: E. coli
Excerpt: as §1, §2, §3, §4, §5

[3] = tested on: Arthrobacter sp. BP2 chnB monooxygenase; test: as above; assay type: biochemical; details: 1.25 mM substrate, pH 7.5; ND = No Activity Detected
Excerpt: as §1, §2, §3, §4, §5

[4] = tested on: Brevibacterium sp. HCU chnB1 monooxygenase; test: as above; assay type: biochemical; details: 1.25 mM substrate, pH 7.5; ND = No Activity Detected
Excerpt: as §1, §2, §3, §4, §5

[5] = tested on: Brevibacterium sp. HCU chnB2 monooxygenase; test: as above; assay type: biochemical; details: 1.25 mM substrate, pH 7.5; rates multiplied by a factor of 3.25 to adjust for decrease in activity due to storage; ND = No Activity Detected
Excerpt: as §1, §2, §3, §4, §5

[6] = tested on: Rhodococcus sp. phi1 chnB monooxygenase; test: as above; assay type: biochemical; details: 1.25 mM substrate, pH 7.5; ND = No Activity Detected
Excerpt: as §1, §2, §3, §4, §5

[7] = tested on: Rhodococcus sp. phi2 chnB monooxygenase; test: as above; assay type: biochemical; details: 1.25 mM substrate, pH 7.5; ND = No Activity Detected
Excerpt: as §1, §2, §3, §4, §5

[8] = Conversion of cyclohexanone to caprolactone by E. coli clones expressing Rhodococcus erythropolis AN12 monooxygenases, GC-MS detection; assay type: cell-based, Escherichia coli; details: 500 mg/L cyclohexanone, 0.1 mM IPTG, overnight at 24° C., GC-MS of ethylacetate extract
Method: Following amplification, the gene fragments were cloned into pTrcHis-TOPO TA vectors with either an N-terminal tail or C-terminal tail, as provided by the vector sequence. These vectors were transformed into E. coli, with transformants grown in Luria-Bertani broth supplemented with ampicillin (100 ug/ml).
The chnB monooxygenase activity of each expressed enzyme from Example 9 was tested for activity according to its ability to convert cyclohexanone to caprolactone.
Clones containing the full length monooxygenase genes were transferred from LB agar plate to 5 mL of M63 minimal media (GIBCO) containing 10 mM glycerol, 50 ug/mL ampicillin, 0.1 mM IPTG, and 500 mg/L cyclohexanone. In addition to the clones containing full length monooxygenases, a plasmid without an insert and a “no cell” control were also assayed. The encoded monooxygenase sequences were expressed upon addition of IPTG to the culture media. The cultures were incubated overnight at room temperature (24° C.). Samples (1.25 mL) for analysis were taken immediately after inoculation and after overnight incubation; cells were removed by centrifugation (4° C., 13,000 rpm).
Caprolactone formed by the action of the cloned monooxygenase was extracted from the aqueous phase with ethylacetate (1.0 ml aqueous/0.5 mL ethylacetate). Caprolactone was detected by gas chromotagraphy mass spectrometry (GC-MS) analysis, using an Agilent 6890 Gas chromatograph system.
The analysis of the ethylacetate phase was performed by injecting 1 uL of the ethyl acetate phase into the GC. The inlet temperature was 115° C. and the column temperature profile was 50° C. for 4 min and ramped to 250° C. at 20° C./min, for a total run time of 14 min. The compounds were separated with an Hewlet Packard HP-5MS (5% phenyl Methyl Siloxane) column (30 m length, 250 um diameter, and 0.25 um film thickness). The mass spectrometer was run in Electron Ionization mode. The background mass spectra was subtracted from the spectra at the retention time of caprolactone (9.857 min). Presence of caprolactone was confirmed by comparison of the test reactions to an authentic standard obtained from Aldrich Chemical Company (St. Louis, Mo.).
Results of these assays are shown below in Table 7, in terms of the presence or absence of detectable caprolactone formation according to the activity of each expressed BV monooxygenase enzyme.

Row | Molecule | Specific Activity of Monooxygenase Enzymes Against Various Ketone Substrates, sp. CHX chnB [1] | Specific Activity of Monooxygenase Enzymes Against Various Ketone Substrates, sp. SE19 chnB [2] | Specific Activity of Monooxygenase Enzymes Against Various Ketone Substrates, sp. BP2 chnB [3] | Specific Activity of Monooxygenase Enzymes Against Various Ketone Substrates, sp. HCU chnB1 [4] | Specific Activity of Monooxygenase Enzymes Against Various Ketone Substrates, sp. HCU chnB2 [5] | Specific Activity of Monooxygenase Enzymes Against Various Ketone Substrates, sp. phi1 chnB [6] | Specific Activity of Monooxygenase Enzymes Against Various Ketone Substrates, sp. phi2 chnB [7] | Formation of Caprolactone (ability to convert cyclohexanone to caprolactone) [8]
1 | O=C1CC2CC[C@H]1C2 [Norcamphor] | 0.166 µmol/min/mg | 4.474 µmol/min/mg | 2.842 µmol/min/mg | 0.410 µmol/min/mg | 1.331 µmol/min/mg | 1.504 µmol/min/mg | 2.816 µmol/min/mg | –
2 | dimethy-2-piperidone | 0.557 µmol/min/mg | 8.384 µmol/min/mg | 4.154 µmol/min/mg | 2.822 µmol/min/mg | 0.354 µmol/min/mg | 3.539 µmol/min/mg | 6.509 µmol/min/mg | –
3 | O=C1CCCCCC1 [Cycloheptanone] | 0.608 µmol/min/mg | 8.422 µmol/min/mg | 3.846 µmol/min/mg | 0.646 µmol/min/mg | 0.374 µmol/min/mg | 3.622 µmol/min/mg | 6.234 µmol/min/mg | –
4 | O=C1C=CCCC1 [Cyclohex-2-ene-1-one] | 0.666 µmol/min/mg | 5.357 µmol/min/mg | 2.739 µmol/min/mg | 0.435 µmol/min/mg | 0.541 µmol/min/mg | 2.694 µmol/min/mg | 3.091 µmol/min/mg | –
5 | CC1CCCC1=O (stereo not drawn) [2-methyl-cyclopentanone] | 0.627 µmol/min/mg | 8.378 µmol/min/mg | 3.514 µmol/min/mg | 1.395 µmol/min/mg | 0.874 µmol/min/mg | 3.392 µmol/min/mg | 6.445 µmol/min/mg | –
6 | CC(=O)/C=C/C1=C(C)CCCC1(C)C [beta-ionone] | 0.544 µmol/min/mg | 3.347 µmol/min/mg | 1.485 µmol/min/mg | 0.109 µmol/min/mg | 0.374 µmol/min/mg | 2.707 µmol/min/mg | 0.544 µmol/min/mg | –
7 | O=C1CCC(=O)CC1 [1,4-cyclohexanedione] | 0.794 µmol/min/mg | 8.346 µmol/min/mg | 3.994 µmol/min/mg | 3.405 µmol/min/mg | 1.123 µmol/min/mg | 3.302 µmol/min/mg | 6.150 µmol/min/mg | –
8 | O=C1CCCCC1 [Cyclohexanone] | 0.397 µmol/min/mg | 6.349 µmol/min/mg | 3.565 µmol/min/mg | 2.765 µmol/min/mg | 1.726 µmol/min/mg | 3.680 µmol/min/mg | 3.750 µmol/min/mg | –
9 | ORF 8: Rhodococcus erythropolis AN12 ORF 8 chnB monooxygenase, protein SEQ ID NO:22, expressed in E. coli (protein, Rhodococcus erythropolis AN12) MSTEGKYALIGAGPSGLAGARNLDRAGIAFDGFESHDDVGGLWDIDNPHSTVYESAHLISSKGTTAFAEFPMADSVADYPSHIELAEYFRDYADTHDLRRHFAFGTTVIDVLPVDSLWQVTTRSRSGETSVARYRGVIIANGTLSKPNIPTFRGDFTGTLMHTSEYRSAEIFRGKRVLVIGAGNSGCDIAVDAVHQAECVDLSVRRGYYFVPKYLFGRPSDTLNQGKPLPPWIKQRVDTLLLKQFTGDPVRFGFPAPDYKIYESHPVVNSLILHHIGHGDVHVRADVDRFEGKTVRFVDGSSADYDLVLCATGYHLDYPFIAREDLDWSGAAPDLFLNVASRRHDNLFVLGMVEASGLGWQGRYQQAELVAKLITARTEAPAAAREFSAAAAGPPPDLSGGYKYLKLGRMAYYVNKDAYRSAIRRHIGLLDAALTKGGQ | – | – | – | – | – | – | – | Detected
